The text below walks through data of patent US7488742B2, “Thrombin receptor antagonists” (Schering Corporation, priority 2000, dated 2009).

For the assay, the target named is T1, thrombin receptor (Homo sapiens, UniProt P25116).
T1 construct: tissue North Jersey Blood Center (East Orange, N.J.); host or cells: platelet membranes from platelet concentrates
T1 sequence (P25116 22-425): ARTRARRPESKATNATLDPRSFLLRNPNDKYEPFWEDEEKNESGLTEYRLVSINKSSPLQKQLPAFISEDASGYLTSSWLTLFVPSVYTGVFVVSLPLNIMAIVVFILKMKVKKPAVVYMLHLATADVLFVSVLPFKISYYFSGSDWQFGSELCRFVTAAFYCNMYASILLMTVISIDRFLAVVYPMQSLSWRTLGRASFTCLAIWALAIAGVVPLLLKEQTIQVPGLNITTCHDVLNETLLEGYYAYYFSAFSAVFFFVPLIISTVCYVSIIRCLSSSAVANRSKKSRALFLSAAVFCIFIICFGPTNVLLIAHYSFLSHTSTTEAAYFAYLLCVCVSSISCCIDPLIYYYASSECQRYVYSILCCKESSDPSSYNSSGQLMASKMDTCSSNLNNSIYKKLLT
Description: High throughput thrombin receptor radioligand binding assay ([3H]haTRAP, platelet membranes). The settings on record: [3H]haTRAP binding to platelet membranes; read-out: thrombin receptor IC50 (concentration at which a 50% inhibition of thrombin receptor was observed). Here is the method: In Vitro Testing Procedure for Thrombin Receptor Antagonists:
The vessel was attached to the tritium line, frozen in liquid nitrogen and evacuated. […] At the completion of the reaction, the excess tritium was removed and the reacted peptide solution was diluted with DMF (0.5 ml) and filtered to remove the catalyst. The collected DMF solution of the crude peptide was diluted with water and freeze dried to remove the labile tritium. The solid peptide was redissolved in water and the freeze drying process repeated.
All steps were carried out at 4° C. under approved biohazard safety conditions. Platelets were centrifuged at 100×g for 20 minutes at 4° C. to remove red cells. The supernatants were decanted and centrifuged at 3000×g for 15 minutes to pellet platelets. […] This step was repeated two additional times. […] To complete membrane preparation, aliquots were thawed, pooled, and homogenized with 5 strokes of a Dounce homogenizer. Membranes were pelleted and washed 3 times in 10 mM triethanolamine-HCl, pH 7.4, 5 mM EDTA, and resuspended in 20-25 ml 50 mM Tris-HCl, pH 7.5, 10 mM MgCl2, 1 mM EGTA, and 1% DMSO.
High Throughput Thrombin Receptor Radioligand Binding Assay
Stock solutions (10 mM in 100% DMSO) of test compounds were further diluted in 100% DMSO. Unless otherwise indicated, 10 μl of diluted compound solutions and 90 μl of radioligand (a final concentration of 10 nM in 5% DMSO) were added to each well, and the reaction was started by the addition of 100 μl of membranes (40 μg protein/well). […] Compounds were tested at three concentrations (0.1, 1 and 10 μM).

Take `C[C@H]1[C@H](/C=C/c2ccc(-c3cccc(C#N)c3)cn2)[C@@H]2[C@@H](C)OC(=O)[C@]2(N)C[C@@H]1C` [Example 20G]: the IC50 was 1 to 100 nM.
Take `CC[C@H]1[C@H](/C=C/c2ccc(-c3ccccc3)cn2)[C@@H]2[C@@H](C)OC(=O)[C@]2(C(N)=O)C[C@@H]1C` [Example 17H]: the IC50 was 1 to 100 nM.
The value for `C[C@H]1[C@H](/C=C/c2ccc(-c3ccccc3C#N)cn2)[C@@H]2[C@@H](C)OC(=O)[C@]2(N)C[C@@H]1C` [Example 20H] was 1 to 100 nM.
The value for `C[C@H]1[C@H](/C=C/c2ccc(-c3cccc(F)c3)cn2)[C@@H]2[C@@H](C)OC(=O)[C@]2(N)C[C@@H]1C` [Example 20F] was 1 to 100 nM.
Consider `C[C@H]1[C@H](/C=C/c2ccc(-c3ccccc3)cn2)[C@@H]2[C@@H](C)OC(=O)[C@]2(N)C[C@@H]1C` [Example 20E], for which the IC50 was 1 to 100 nM.
